According to patent publication US11058678B2 (Enanta Pharmaceuticals, Inc., priority 2018, dated 2021):
pEC50: −log10 of the molar value.

Key:
[1] = test system: HBV (2.2.15 cells); test: Antiviral activity in 2.2.15 cells: reduction of viral product accumulation (qPCR of lysates, HBsAg or HBeAg ELISA); format: cell-based, hepatitis B virus (HBV); conditions: Hepatitis B virus, 120 h, day 5 post treatment, 50% reduction of viral product accumulation in lysates or supernatants vs no drug controls, readout (qPCR, HBsAg, HBeAg) not specified
Procedure, shortened: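 HBV-producing 2.2.15 cells, 35,000/well, treated with 5-fold serial compound dilutions at 0.5% final DMSO for 5 days. Lysate HBV DNA by qPCR or supernatant HBsAg/HBeAg by ELISA; EC50 is 50% reduction versus no-drug control, binned A<0.1 μM, B 0.1-1 μM, C>1 μM.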

[2] = Compound induced cellular toxicity in HepG2 cells (ATPlite 1 Step); format: cell-based; conditions: human, three days, 50% reduction of total ATP levels vs no drug controls
Procedure: At day 3, post seeding cells are treated with ATPlite 1 Step according to the manufacturer's instructions.

With COCCCOc1cc2c(cc1-c1cc3ccccc3o1)-c1cc(=O)c(C(=O)O)cn1[C@H](C(C)(C)C)C2 [Example 9, (S)-10-(benzofuran-2-yl)-6-(tert-butyl)-9-(3-methoxypropoxy)-2-oxo-6,7-dihydro-2H-pyrido[2,1-a]isoquinoline-3-carboxylic Acid] as the compound, how does the pEC50 [1] read?
Its pEC50 is greater than 7.00.

What about the CC50 at 3 days [2] of the same compound?
The CC50 at 3 days was greater than 25000 nM.

Which results are given for COCCCOc1cc2c(cc1-c1ocnc1C(F)(F)F)-c1cc(=O)c(C(=O)O)cn1[C@H](C(C)(C)C)C2 [Example 27, (S)-6-(tert-butyl)-9-(3-methoxypropoxy)-2-oxo-10-(4-(trifluoromethyl)oxazol-5-yl)-6,7-dihydro-2H-pyrido[2,1-a]isoquinoline-3-carboxylic Acid]?
pEC50 [1]: 6.00 to 7.00; CC50 at 3 days [2]: > 25000 nM

Which results are given for COCCCOc1cc2c(cc1-c1ccc(OC)cc1)-c1cc(=O)c(C(=O)O)cn1[C@H](C(C)(C)C)C2 [Example 17, (S)-6-(tert-butyl)-10-(4-methoxyphenyl)-9-(3-methoxypropoxy)-2-oxo-6,7-dihydro-2H-pyrido[2,1-a]isoquinoline-3-carboxylic Acid]?
pEC50 [1]: > 7.00; CC50 at 3 days [2]: 10000 to 25000 nM

With COCCCOc1cc2c(cc1-c1ccccc1F)-c1cc(=O)c(C(=O)O)cn1[C@H](C(C)(C)C)C2 [Example 13, (S)-6-(tert-butyl)-10-(2-fluorophenyl)-9-(3-methoxypropoxy)-2-oxo-6,7-dihydro-2H-pyrido[2,1-a]isoquinoline-3-carboxylic Acid] as the compound, how does the pEC50 [1] read?
The pEC50 was greater than 7.00.

And the CC50 at 3 days [2]?
The CC50 at 3 days was 10000 to 25000 nM.

What does the source list for CC(C)(C)[C@@H]1Cc2c(cc(-c3cccs3)c3c2CCO3)-c2cc(=O)c(C(=O)O)cn21 [Example 86, (S)-5-(tert-butyl)-9-oxo-12-(thiophen-2-yl)-2,3,4,9-tetrahydro-5H-furo[3,2-f]pyrido[2,1-a]isoquinoline-8-carboxylic Acid]?
pEC50 [1]: > 7.00; CC50 at 3 days [2]: < 10000 nM

With COCCCOc1cc2c(cc1-c1nc(C(F)(F)F)co1)-c1cc(=O)c(C(=O)O)cn1[C@H](C(C)(C)C)C2 [Example 26, (S)-6-(tert-butyl)-9-(3-methoxypropoxy)-2-oxo-10-(4-(trifluoromethyl)oxazol-2-yl)-6,7-dihydro-2H-pyrido[2,1-a]isoquinoline-3-carboxylic Acid] as the compound, how does the pEC50 [1] read?
The pEC50 was 6.00 to 7.00.

What about the CC50 at 3 days [2] of the same compound?
Its CC50 at 3 days is greater than 25000 nM.

With COCCCOc1cc2c(cc1-c1cccc(F)c1)-c1cc(=O)c(C(=O)O)cn1[C@H](C(C)(C)C)C2 [Example 14, (S)-6-(tert-butyl)-10-(3-fluorophenyl)-9-(3-methoxypropoxy)-2-oxo-6,7-dihydro-2H-pyrido[2,1-a]isoquinoline-3-carboxylic Acid] as the compound, how does the pEC50 [1] read?
Its pEC50 is greater than 7.00.

What about the CC50 at 3 days [2] of the same compound?
Its CC50 at 3 days is 10000 to 25000 nM.

With CC(C)(C)[C@@H]1Cc2c(cc(-c3ccc(F)c(F)c3)c3c2CCO3)-c2cc(=O)c(C(=O)O)cn21 [Example 77, (S)-5-(tert-butyl)-12-(3,4-difluorophenyl)-9-oxo-2,3,4,9-tetrahydro-5H-furo[3,2-f]pyrido[2,1-a]isoquinoline-8-carboxylic Acid] as the compound, how does the pEC50 [1] read?
The pEC50 was greater than 7.00.

And the CC50 at 3 days [2]?
Its CC50 at 3 days is less than 10000 nM.

With COCCCOc1cc2c(cc1-c1ccnn1C)-c1cc(=O)c(C(=O)O)cn1[C@H](C(C)(C)C)C2 [Example 18, (S)-6-(tert-butyl)-9-(3-methoxypropoxy)-10-(1-methyl-1H-pyrazol-5-yl)-2-oxo-6,7-dihydro-2H-pyrido[2,1-a]isoquinoline-3-carboxylic Acid] as the compound, how does the pEC50 [1] read?
The pEC50 was greater than 7.00.

What about the CC50 at 3 days [2] of the same compound?
The CC50 at 3 days was greater than 25000 nM.

With COCCCOc1cc2c(cc1-c1c(C)oc3ccccc13)-c1cc(=O)c(C(=O)O)cn1[C@H](C(C)(C)C)C2 [Example 21, (S)-6-(tert-butyl)-9-(3-methoxypropoxy)-10-(2-methylbenzofuran-3-yl)-2-oxo-6,7-dihydro-2H-pyrido[2,1-a]isoquinoline-3-carboxylic Acid] as the compound, how does the pEC50 [1] read?
The pEC50 was 6.00 to 7.00.

What about the CC50 at 3 days [2] of the same compound?
The CC50 at 3 days was greater than 25000 nM.

With COCCCOc1cc2c(cc1-c1cc3ccccc3[nH]1)-c1cc(=O)c(C(=O)O)cn1[C@H](C(C)(C)C)C2 [Example 19, (S)-6-(tert-butyl)-10-(1H-indol-2-yl)-9-(3-methoxypropoxy)-2-oxo-6,7-dihydro-2H-pyrido[2,1-a]isoquinoline-3-carboxylic Acid] as the compound, how does the pEC50 [1] read?
The pEC50 was 6.00 to 7.00.

And the CC50 at 3 days [2]?
The CC50 at 3 days was greater than 25000 nM.

With COCCCOc1cc2c(cc1-c1ccc(C)o1)-c1cc(=O)c(C(=O)O)cn1[C@H](C(C)(C)C)C2 [Example 1, (S)-6-(tert-butyl)-9-(3-methoxypropoxy)-10-(5-methylfuran-2-yl)-2-oxo-6,7-dihydro-2H-pyrido[2,1-a]isoquinoline-3-carboxylic Acid] as the compound, how does the pEC50 [1] read?
The pEC50 was greater than 7.00.

What about the CC50 at 3 days [2] of the same compound?
The CC50 at 3 days was greater than 25000 nM.

Which results are given for COCCCOc1cc2c(cc1-c1coc3ccccc13)-c1cc(=O)c(C(=O)O)cn1[C@H](C(C)(C)C)C2 [Example 10, (S)-10-(benzofuran-3-yl)-6-(tert-butyl)-9-(3-methoxypropoxy)-2-oxo-6,7-dihydro-2H-pyrido[2,1-a]isoquinoline-3-carboxylic Acid]?
pEC50 [1]: > 7.00; CC50 at 3 days [2]: > 25000 nM

With COCCCOc1cc2c(cc1-c1cnco1)-c1cc(=O)c(C(=O)O)cn1[C@H]1[C@@H]2CCC1(C)C [Example 63, (3aS,12bR)-11-(3-methoxypropoxy)-3,3-dimethyl-10-(oxazol-5-yl)-7-oxo-1,2,3,3a,7,12b-hexahydrocyclopenta[c]pyrido[2,1-a]isoquinoline-6-carboxylic Acid] as the compound, how does the pEC50 [1] read?
The pEC50 was greater than 7.00.

What about the CC50 at 3 days [2] of the same compound?
The CC50 at 3 days was 10000 to 25000 nM.

With COCCCOc1cc2c(cc1-c1cccc(F)c1F)-c1cc(=O)c(C(=O)O)cn1[C@H](C(C)(C)C)C2 [Example 23, (S)-6-(tert-butyl)-10-(2,3-difluorophenyl)-9-(3-methoxypropoxy)-2-oxo-6,7-dihydro-2H-pyrido[2,1-a]isoquinoline-3-carboxylic Acid] as the compound, how does the pEC50 [1] read?
Its pEC50 is 6.00 to 7.00.

And the CC50 at 3 days [2]?
The CC50 at 3 days was greater than 25000 nM.

With COc1cccc(-c2cc3c(c4c2OCC4)C[C@@H](C(C)(C)C)n2cc(C(=O)O)c(=O)cc2-3)c1 [Example 79, (S)-5-(tert-butyl)-12-(3-methoxyphenyl)-9-oxo-2,3,4,9-tetrahydro-5H-furo[3,2-f]pyrido[2,1-a]isoquinoline-8-carboxylic Acid] as the compound, how does the pEC50 [1] read?
Its pEC50 is greater than 7.00.

What about the CC50 at 3 days [2] of the same compound?
The CC50 at 3 days was less than 10000 nM.

What does the source list for COCCCOc1cc2c(cc1-c1ccc3c(c1)OCCN3C)-c1cc(=O)c(C(=O)O)cn1[C@H](C(C)(C)C)C2 [Example 24, (S)-6-(tert-butyl)-9-(3-methoxypropoxy)-10-(4-methyl-3,4-dihydro-2H-benzo[b][1,4]oxazin-7-yl)-2-oxo-6,7-dihydro-2H-pyrido[2,1-a]isoquinoline-3-carboxylic Acid]?
pEC50 [1]: 6.00 to 7.00; CC50 at 3 days [2]: > 25000 nM

With COCCCOc1cc2c(cc1-c1ccc(F)cc1F)-c1cc(=O)c(C(=O)O)cn1[C@H](C(C)(C)C)C2 [Example 22, (S)-6-(tert-butyl)-10-(2,4-difluorophenyl)-9-(3-methoxypropoxy)-2-oxo-6,7-dihydro-2H-pyrido[2,1-a]isoquinoline-3-carboxylic Acid] as the compound, how does the pEC50 [1] read?
Its pEC50 is 6.00 to 7.00.

What about the CC50 at 3 days [2] of the same compound?
The CC50 at 3 days was greater than 25000 nM.

With COCCCOc1cc2c(cc1-c1cnco1)-c1cc(=O)c(C(=O)O)cn1[C@H](C(C)(C)C)C2 [Example 6, (S)-6-(tert-butyl)-9-(3-methoxypropoxy)-10-(oxazol-5-yl)-2-oxo-6,7-dihydro-2H-pyrido[2,1-a]isoquinoline-3-carboxylic Acid] as the compound, how does the pEC50 [1] read?
Its pEC50 is greater than 7.00.

What about the CC50 at 3 days [2] of the same compound?
Its CC50 at 3 days is greater than 25000 nM.

With COCCCOc1cc2c(cc1-c1ccc(F)cc1)-c1cc(=O)c(C(=O)O)cn1[C@H]1[C@@H]2CCC1(C)C [Example 59] as the compound, how does the pEC50 [1] read?
The pEC50 was greater than 7.00.

What about the CC50 at 3 days [2] of the same compound?
Its CC50 at 3 days is 10000 to 25000 nM.

With CC(C)[C@@H]1Cc2c(cc(-c3ccsc3)c3c2CCO3)-c2cc(=O)c(C(=O)O)cn21 [Example 100, (S)-5-isopropyl-9-oxo-12-(thiophen-3-yl)-2,3,4,9-tetrahydro-5H-furo[3,2-f]pyrido[2,1-a]isoquinoline-8-carboxylic Acid] as the compound, how does the pEC50 [1] read?
The pEC50 was greater than 7.00.

What about the CC50 at 3 days [2] of the same compound?
Its CC50 at 3 days is less than 10000 nM.

With COCCCOc1cc2c(cc1-n1cccn1)-c1cc(=O)c(C(=O)O)cn1[C@H](C(C)(C)C)C2 [Example 28, (S)-6-(tert-butyl)-9-(3-methoxypropoxy)-2-oxo-10-(1H-pyrazol-1-yl)-6,7-dihydro-2H-pyrido[2,1-a]isoquinoline-3-carboxylic Acid] as the compound, how does the pEC50 [1] read?
Its pEC50 is 6.00 to 7.00.

And the CC50 at 3 days [2]?
The CC50 at 3 days was greater than 25000 nM.

What does the source list for C[C@H]1Cc2c3c(cc(-c4ccoc4)c2O1)-c1cc(=O)c(C(=O)O)cn1[C@H](C(C)(C)C)C3 [Example 132, (2S,5S)-5-(tert-butyl)-12-(furan-3-yl)-2-methyl-9-oxo-2,3,4,9-tetrahydro-5H-furo[3,2-f]pyrido[2,1-a]isoquinoline-8-carboxylic Acid]?
pEC50 [1]: > 7.00; CC50 at 3 days [2]: < 10000 nM

With COCCCOc1cc2c(cc1-c1cccs1)-c1cc(=O)c(C(=O)O)cn1[C@H](C(C)(C)C)C2 [Example 8, (S)-6-(tert-butyl)-9-(3-methoxypropoxy)-2-oxo-10-(thiophen-2-yl)-6,7-dihydro-2H-pyrido[2,1-a]isoquinoline-3-carboxylic Acid] as the compound, how does the pEC50 [1] read?
The pEC50 was greater than 7.00.

What about the CC50 at 3 days [2] of the same compound?
Its CC50 at 3 days is 10000 to 25000 nM.

What does the source list for COCCCOc1cc2c(cc1-c1ccsc1)-c1cc(=O)c(C(=O)O)cn1[C@H](C(C)(C)C)C2 [Example 5, (S)-6-(tert-butyl)-9-(3-methoxypropoxy)-2-oxo-10-(thiophen-3-yl)-6,7-dihydro-2H-pyrido[2,1-a]isoquinoline-3-carboxylic Acid]?
pEC50 [1]: > 7.00; CC50 at 3 days [2]: > 25000 nM

With COCCCOc1cc2c(cc1-c1nc3ccccc3o1)-c1cc(=O)c(C(=O)O)cn1[C@H](C(C)(C)C)C2 [Example 25, (S)-10-(benzo[d]oxazol-2-yl)-6-(tert-butyl)-9-(3-methoxypropoxy)-2-oxo-6,7-dihydro-2H-pyrido[2,1-a]isoquinoline-3-carboxylic Acid] as the compound, how does the pEC50 [1] read?
The pEC50 was 6.00 to 7.00.

What about the CC50 at 3 days [2] of the same compound?
The CC50 at 3 days was greater than 25000 nM.
